{"source": "patent US20050239873A1", "about": "(priority 1999, published 2005)", "key": {"[1]": {"assay": "Stability in plasma", "format": "in vitro ADME, mouse", "details": "for stability: 37° C., 60 min", "description": "(§1) For analysis of samples, two volumes of cold methanol-acetonitrile (50:50, v/v) were added to portions of plasma, culture medium, or cell extract. The preparations were mixed and then centrifuged to obtain clear supernatants, which were dried at room temperature by compressed air. The residues were dissolved in the mobile phase, and a portion was injected onto the HPLC column.\n(§2) The HPLC equipment consisted of a Hewlett Packard 1050 ChemStation with a fluorescence detector (Agilent 100 series). […] The mobile phase was methanol:ammonium acetate buffer (87:13 v/v; 0.2 M; pH 5.8, adjusted with HCl). The flow rate was 1 ml/min. The column elute was monitored fluorometrically at an excitation wavelength of 232 nm and an emission wavelength of 418 nm. The amounts of test compounds present in samples were determined from the peak areas.\n(§3) Samples of mouse, rat, dog, and human plasma were incubated at 37° C. with and without addition of NaF (2.5 mg/ml) and EDTA (1 mg/ml). To these preparations, 2-OMe antimycin A1, 2-OMe antimcyin A2, 2-OMe antimycin A3, or 2-OMe antimycin A5, dissolved in methanol, was added to final concentrations of 500 ng/ml. Portions of plasma, taken at selected times after addition of the 2-OMe antimycin analog, were extracted and analyzed.\n(§4) Similarly, the stability of 2-OMe antimycin A1, 2-OMe antimycin A2, […] in the plasma from mice and humans was evaluated at −80° C. From these preparations, portions were analyzed immediately; other portions were stored at -80° C. and analyzed after 1, 2, and 4 weeks."}, "[2]": {"test_system": "RPMI-8226 human myeloma xenografts in NOD/SCID mice", "assay": "RPMI-8226 tumor xenografts", "format": "in vivo, mouse", "description": "Six to nine-week old Nod/Les2 Scid/J mice were inoculated with 3×10^7 RPMI-8226 cells by interscapular subcutaneous injection. Mice were maintained under specific pathogen-free conditions. Palpable tumor nodules were measured in two dimensions with calipers and tumor volumes calculated in mm^3 as (length×width^2)/2. Blood samples were collected by retro-orbital bleed for human light chain measurements by ELISA with lambda-specific antibody and horseradish peroxidase detection (BD Biosciences). Animals were sacrificed by halothane inhalation, and histologic examination of tumors and internal organs was performed. All experiments were approved by the Fred Hutchison Cancer Research Center Institutional Animal Care and Use Committee.\n2-OMe antimycin A1 was synthesized from antimycin A1 (Sigma) (comprising about 80% antimycin Ala and about 20% A1b) and dissolved in phosphate-buffered saline with 20% Cremaphor, 25% ethanol (3 mg/ml) for parenteral administration by tail vein injection in a total volume of 100 μl. Control mice received injections of Cremaphor/ethanol vehicle.\nTissues were fixed in 10% buffered formalin, embedded in paraffin, sectioned and stained with hematoxylin and eosin. TUNEL staining was performed using 0.3 units/ml terminal deoxynucleotidyl transferase and biotinylated dATP with development by avidin-biotin peroxidase method. BCl-xL immunohistochemistry was performed using anti-Bcl-xL antibody (BD Biosciences) followed by biotinylated secondary antibody and peroxidase-labeled ABC reagent (Vector, Burlingame Calif.).\nTo determine whether 2-OMeA, has anti-tumor activity in vivo, a total of 12 NOD/SCID mice in three experiments were inoculated with 3×10^7 RPMI-8226 human myeloma cells by interscapular subcutaneous injection. […] In total, six mice received three intravenous doses of 10 mg/kg 2-OMeA1 on alternate days starting on day 6. Six control mice received injections of Cremaphor/ethanol vehicle without drug."}, "[3]": {"assay": "Stability in plasma", "format": "in vitro ADME, human", "details": "for stability: 37° C., 60 min", "description": "as §1, §2, §3, §4"}, "[4]": {"test_system": "TABX2S cells (over-expressing Bcl-xL)", "assay": "cells", "source_text": "Briefly, a DNA fragment encoding the full-length mouse BCl-xL cDNA was isolated from the plasmid PBS.BCL-xL (Tzung et al., Am. J. Path. 150:1985-1995, 1997, incorporated herein by reference in its entirety) by digestion with the restriction endonuclease EcoRI. This EcoRI fragment was cloned into the EcoRI site of the mammalian expression vector pSFFV (Fuhlbrigge et al., Proc. Nat. Acad. Sci. USA 85:5649-5653, 1988) in both sense and antisense orientations, to form expression plasmids pSFFV.Bcl-xL(sense) or pSFFV.Bcl-xL(antisense), respectively. The tumorigenic murine hepatocyte cell line TAMH was transfected by lipofection (Lipofectamine, Life Technologies, Rockville, Md., according to the manufacturer's recommendations) with the plasmids pSFFV.neo (the control), pSFFV.Bcl-xL(sense) or pSFFV.Bcl-xL(antisense). […] Transfectants were selected for the acquisition of neomycin resistance by growing cells in the presence of 750 μg/ml of G418. Bulk transfectants were cloned by limiting dilution and individual clones were screened by immunoblot analysis to determine the level of BCl-xL protein expression as described below.\nSelected transfectants were then tested for whole cell sensitivity to several apoptotic agents. Transfected cells were cultured to reach approximately 80% confluency prior to plating an equal number of cells from selected clones on 12-well tissue culture plates. The transplanted cells were treated with the following apoptotic agents: 5 μM doxorubicin for 48 hours; 5 μM cisplatin for 48 hours; or with 200 U/ml tumor necrosis factor (TNF) plus 1 μg/ml actinomycin D for 18 hours. Cell viability was determined by trypan blue dye exclusion. The percentage of viable cells was calculated by the number of viable cells (treated with a particular apoptogenic agent) divided by the number in the control group (untreated).\nTABX2S cells and TABX1A cells were also examined for the effects of various mitochondrial inhibitors. […] Azide was diluted from an aqueous stock solution. […] Controls received an equivalent concentration of diluent. At various time points after drug treatment, cells were trypsinized, and cell viability was determined by trypan blue dye exclusion. The number of viable cells were counted and normalized to control group (i.e., % control=number of viable cells (treated group)/number of viable cells (control group)×100)."}}, "data": [{"compound": "CCCCCC[C@H]1C(=O)O[C@H](C)[C@H](NC(=O)c2cccc(NC=O)c2OC)C(=O)O[C@@H](C)[C@@H]1OC(=O)CC(C)C", "note": "[2-OMeA1, 2-methoxy antimycin A1]", "values": [{"measurement": "stability", "setting": "[1]; presence of NaF/EDTA", "result": "substantially stable"}, {"measurement": "amounts remaining after 4 weeks", "setting": "[1]; -80° C., presence of NaF/EDTA", "result": 96, "unit": "%"}, {"measurement": "amounts remaining after 4 weeks", "setting": "[1]; −80° C., absence of NaF/EDTA", "result": 78, "unit": "%"}, {"measurement": "time to regression of early and large nodules", "setting": "[2]; 10 mg/kg intravenously", "result": "within the first week"}, {"measurement": "tumor sections", "setting": "[2]; 24 and 48 h after a single 10 mg/kg intravenous treatment", "result": "widespread apoptosis"}, {"measurement": "average reduction of serum levels of human light chain", "setting": "[2]; after the third injection, 10 mg/kg intravenous on alternate days", "result": 87, "unit": "%"}, {"measurement": "mice with tumor regression during treatment", "setting": "[2]; three intravenous doses of 10 mg/kg on alternate days starting on day 6", "result": "Five of six"}, {"measurement": "effect of delayed treatment on tumor nodules", "setting": "[2]; two tumor-bearing control mice, 10 mg/kg on days 43, 46 and 48", "result": "regression of tumor nodules"}, {"measurement": "stability", "setting": "[3]; presence of NaF/EDTA", "result": "moderately stable"}, {"measurement": "amounts remaining after 4 weeks", "setting": "[3]; -80° C., presence of NaF/EDTA", "result": 93, "unit": "%"}, {"measurement": "amounts remaining after 4 weeks", "setting": "[3]; −80° C., absence of NaF/EDTA", "result": 86, "unit": "%"}]}, {"compound": "antimycin A", "values": [{"measurement": "survival", "setting": "[4]; 2 μg/ml, supplemented with fructose, six hours", "result": 33, "unit": "%"}, {"measurement": "time until cell death readily apparent", "setting": "[4]; after addition to the cell culture", "result": "≤ 2", "unit": "h"}]}, {"compound": "2-methoxy antimycin A [2-OMeA]", "values": [{"measurement": "treated mice with regression of tumor nodules", "setting": "[2]; second round, 10 mg/kg alternate days, days 26 through 31", "result": "6/6"}]}, {"compound": "CCCC[C@H]1C(=O)OC(C)[C@H](NC(=O)c2cccc(NC=O)c2OC)C(=O)O[C@@H](C)C1OC(=O)CC(C)C", "note": "(stereo partly drawn) [2-OMeA3, Antimycin A3 methyl ether]", "values": [{"measurement": "cytotoxicity for cells over-expressing Bcl-xL vs control cells", "setting": "[4]; TABX2S vs TAMH.neo and TABX1A", "result": "selective cytotoxicity"}, {"measurement": "stability", "setting": "[1]; presence of NaF/EDTA", "result": "notable decreases in concentration"}, {"measurement": "amounts remaining after 4 weeks", "setting": "[1]; -80° C., presence of NaF/EDTA", "result": 90, "unit": "%"}, {"measurement": "amounts remaining after 4 weeks", "setting": "[1]; −80° C., absence of NaF/EDTA", "result": 45, "unit": "%"}, {"measurement": "stability", "setting": "[3]; presence of NaF/EDTA", "result": "notable decreases in concentration"}, {"measurement": "amounts remaining after 4 weeks", "setting": "[3]; -80° C., presence of NaF/EDTA", "result": 95, "unit": "%"}, {"measurement": "amounts remaining after 4 weeks", "setting": "[3]; −80° C., absence of NaF/EDTA", "result": 73, "unit": "%"}]}]}
